Source: patent US20240270762A1, “PENICILLIN-BINDING PROTEIN INHIBITORS” (priority 2021, published 2024)
pEC50, pIC50: −log10 of the molar value. Converted amounts (≈) assume the structure as drawn.

Legend:
K. pneumoniae UMM = experiment: microbe, parasite or virus in culture; type: cell-based; conditions: Klebsiella pneumoniae, read-out: MIC K. pneumoniae UMM
[1] = molecular target: T1, PBP3 from Escherichia coli (K-12) (Escherichia coli, UniProt P0AD68); experiment: Bocillin-FL fluorescence polarization competition binding, E. coli PBP3
T1 construct: made in house
Source text: To determine the ability of boronic acid-based test PBP inhibitors to bind Penicillin Binding Proteins (PBPs), Bocillin-FL (fluorescently-labeled penicillin V; ThermoFisher Scientific) was used in a fluorescence polarization (FP) competition binding assay to assess inhibitor binding to PBP3 from Escherichia coli (K-12), PBP3 from Pseudomonas aeruginosa (PAO1), PBP1a and PBP3 from Acinetobacter baumannii (ATCC 19606), and PBP2 from Neisseria gonorrhoeae (FA19). PBPs were cloned and purified as described previously (E. coli PBP3, King, D. T, et al., ACS Infectious Diseases 2015, 1, 175-184; P. aeruginosa PBP3, Han et. al., PNAS 2010, 107 (51), 22002-22007; A. baumannii PBPs, Penwell et. al., Antimicrob. Agents Chemother. 2015, 59 (3), 1680-1689; N. gonorrhoeae PBP2, Singh et. al., J. Biol. Chem. 2019, 294 (38), 14020-14032). To establish assay conditions for competition binding, enzyme titration/saturation binding experiments were initially performed. Bocillin-FL was prepared at 0.2 μM in a buffer comprised of 50 mM Hepes (pH 8.0), 300 mM NaCl and 10% (v/v) glycerol for reactions with E. coli, P. aeruginosa and N. gonorrhoeae PBPs, and 25 mM Tris (pH 8.0), 200 mM NaCl, 10% (v/v) glycerol and 0.005% (v/v) Tween 20 for reactions with A. baumannii PBPs. Saturation binding was performed by mixing 40 μl of PBP solutions ranging in concentrations from 0-24 μM with 40 μl of the 0.2 μM Bocillin-FL solution, in individual wells of a black 384-well microplate. FP was measured immediately upon mixing (Excitation, 490 nm; Emission, 520 nm; g-factor, 0.96), using a Cytation3 (BioTek) microplate reader and measured continuously for up to 120 minutes. The FP response stabilized after 15 minutes for P. aeruginosa and A. baumannii PBP3, 30 minutes for E. coli PBP3 and A. baumannii PBP1a, and less than 1 minute for N. gonorrhoeae PBP2. […] The competition binding assay (80 μl final volume) was validated using beta-lactams and PBPs at final concentrations of: 1.5 μM for E. coli PBP3; 0.75 μM for P. aeruginosa PBP3; 1 μM for A. baumannii PBP1a; 0.2 μM for A. baumannii PBP3; and 0.25 μM for N. gonorrhoeae PBP2. Bocillin-FL was at 0.1 μM (0.05 μM with A. baumannii PBP1a) and beta-lactam concentrations ranged from 0-1,000 μM. E. coli PBP3 was incubated with increasing concentrations of ampicillin in a black 384-well microplate (Corning) for 30 minutes. P. aeruginosa PBP3 was incubated for 15 minutes with aztreonam, whereas A. baumannii PBP1a and PBP3 were incubated for 15 minutes with meropenem, and then Bocillin-FL was added followed immediately by the FP measurement for up to 60 minutes. […] The beta-lactam potency was reported as the concentration of beta-lactam required to reduce the amount of PBP bound-Bocillin-FL by 50% (EC50). […] The EC50 of aztreonam was determined to be <0.5 μM for P. aeruginosa PBP3. […] Binding assays for boronic acid PBP inhibitors were performed in an identical fashion for the respective PBPs.

E. coli D22 = experiment: microbe, parasite or virus in culture; type: cell-based; conditions: Escherichia coli, D22, read-out: MIC E. coli D22
N. gonorrhoeae WHO Z = experiment: Liquid broth MIC in Fastidious broth; conditions: Neisseria gonorrhoeae, read-out: Minimum Inhibitory Concentration (MIC), N. gonorrhoeae WHO Z
[2] = system: N. gonorrhoeae ATCC 49226; experiment: Liquid broth MIC in Fastidious broth; conditions: Neisseria gonorrhoeae, ATCC49226, read-out: Minimum Inhibitory Concentration (MIC), N. gonorrhoeae ATCC 49226
Experimental: (§1) Additional antibacterial testing of the series was performed in 8 reference strains of N. gonorrhoeae (ATCC 49226, FA1090, MS 11, WHO G, WHO L, WHO M, WHO K, WHO X, WHO Z, WHO Q, CDC-0197). ATCC 49226, FA1090, MS11, WHO G, WHO L, and WHO M produce wild type or wild-type like PBP2. WHO K, WHO X, WHO Z, WHO Q, and CDC-0197 produce mosaic PBP2. Liquid broth-based assays were used for antibacterial testing of PBP inhibitors in Neisseria gonorrhoeae. Briefly, cryo-preserved bacterial cultures of clinical strains were streaked for isolation on Chocolate Agar (72 g/L (2×) GC Agar Base (BD #228950) and 2% (2×) Hemoglobin was autoclaved at 121° C. for 20 minutes to sterilize. Once cooled to ˜50° C. the 2×GC Agar Base and 2× Hemoglobin solutions are combined and 1% IsoVitaleX Enrichment (BD #211876) was added to the solution). Strains were incubated at 36° C. and 5% CO2 to allow growth of colonies, 24 hours before inoculum preparation. 2-fold serial dilutions of test compounds were conducted in a 96 well plate with a final volume of 75 μL per well at 2-fold the final desired concentration in Fastidious broth (Remel #R07664). For preparation of assay inoculum, a direct suspension was prepared by aseptically swabbing 10-15 colonies from agar plates into culture tubes containing 2 mL of fresh sterile saline. After the dilution plates were set up, direct suspensions were then diluted in a cuvette containing sterile saline and the optical density was measured at 600 nm. Inocula were diluted such that 75 μL of this culture in Fastidious broth results in a starting bacterial concentration of 5×10^5 CFU/mL when added to the dilution plates. The plates were incubated for ˜24 hours at 36° C. and 5% CO2.

N. gonorrhoeae WHO M = experiment: Liquid broth MIC in Fastidious broth; conditions: Neisseria gonorrhoeae, read-out: Minimum Inhibitory Concentration (MIC), N. gonorrhoeae WHO M
N. gonorrhoeae FA1090 = experiment: Liquid broth MIC in Fastidious broth; conditions: Neisseria gonorrhoeae, FA1090, read-out: Minimum Inhibitory Concentration (MIC), N. gonorrhoeae FA 1090
Experimental: as §1

E. coli AG100A = experiment: Broth microdilution MIC in CAMHB; type: cell-based; conditions: Escherichia coli, read-out: MIC E. coli AG100A
N. gonorrhoeae MS11 = experiment: Liquid broth MIC in Fastidious broth; conditions: Neisseria gonorrhoeae, MS11, read-out: Minimum Inhibitory Concentration (MIC), N. gonorrhoeae MS11
Experimental: as §1

E. coli AG100 = experiment: microbe, parasite or virus in culture; type: cell-based; conditions: Escherichia coli, AG100, read-out: MIC E. coli AG100
K. pneumoniae 848844 = experiment: microbe, parasite or virus in culture; type: cell-based; conditions: Klebsiella pneumoniae, 848844, read-out: MIC K. pneumoniae 848844
[3] = molecular target: T2, PBP3 from Pseudomonas aeruginosa (PAO1) (Pseudomonas aeruginosa, UniProt G3XD46); experiment: Bocillin-FL fluorescence polarization competition binding, P. aeruginosa PBP3; conditions: Binding affinity to P. aeruginosa PBP3; fluorescence polarization competition binding assay using Bocillin-FL; read-out: P. aeruginosa PBP3 Potency
T2 construct: made in house
Procedure, shortened: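 Purified PBPs pre-incubated with inhibitor (E. coli PBP3 1.5 μM, 30 min; P. aeruginosa PBP3 0.75 μM, A. baumannii PBP1a 1 μM and PBP3 0.2 μM, 15 min), then Bocillin-FL 0.1 μM (0.05 μM for PBP1a) added; FP read up to 60 min. EC50 = concentration halving bound Bocillin-FL.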

P. aeruginosa ATCC 27853 = experiment: microbe, parasite or virus in culture; type: cell-based; conditions: Pseudomonas aeruginosa, ATCC27853, read-out: MIC P. aeruginosa ATCC 27853

T2 sequence (G3XD46 whole entry): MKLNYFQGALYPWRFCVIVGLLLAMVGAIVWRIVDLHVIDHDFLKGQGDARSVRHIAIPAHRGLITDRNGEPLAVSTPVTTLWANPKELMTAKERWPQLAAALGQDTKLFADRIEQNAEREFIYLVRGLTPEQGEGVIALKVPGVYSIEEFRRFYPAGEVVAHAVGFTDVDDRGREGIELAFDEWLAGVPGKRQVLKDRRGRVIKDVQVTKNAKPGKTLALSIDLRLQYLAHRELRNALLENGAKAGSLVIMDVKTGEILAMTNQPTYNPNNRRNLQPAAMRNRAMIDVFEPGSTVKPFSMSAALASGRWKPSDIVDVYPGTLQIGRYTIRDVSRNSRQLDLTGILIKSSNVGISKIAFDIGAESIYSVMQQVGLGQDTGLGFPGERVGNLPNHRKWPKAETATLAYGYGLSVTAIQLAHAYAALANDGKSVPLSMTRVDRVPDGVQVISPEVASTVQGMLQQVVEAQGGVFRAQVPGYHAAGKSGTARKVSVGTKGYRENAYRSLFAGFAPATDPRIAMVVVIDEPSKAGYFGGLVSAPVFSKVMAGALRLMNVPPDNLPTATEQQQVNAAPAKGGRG
T1 sequence (P0AD68 1-577): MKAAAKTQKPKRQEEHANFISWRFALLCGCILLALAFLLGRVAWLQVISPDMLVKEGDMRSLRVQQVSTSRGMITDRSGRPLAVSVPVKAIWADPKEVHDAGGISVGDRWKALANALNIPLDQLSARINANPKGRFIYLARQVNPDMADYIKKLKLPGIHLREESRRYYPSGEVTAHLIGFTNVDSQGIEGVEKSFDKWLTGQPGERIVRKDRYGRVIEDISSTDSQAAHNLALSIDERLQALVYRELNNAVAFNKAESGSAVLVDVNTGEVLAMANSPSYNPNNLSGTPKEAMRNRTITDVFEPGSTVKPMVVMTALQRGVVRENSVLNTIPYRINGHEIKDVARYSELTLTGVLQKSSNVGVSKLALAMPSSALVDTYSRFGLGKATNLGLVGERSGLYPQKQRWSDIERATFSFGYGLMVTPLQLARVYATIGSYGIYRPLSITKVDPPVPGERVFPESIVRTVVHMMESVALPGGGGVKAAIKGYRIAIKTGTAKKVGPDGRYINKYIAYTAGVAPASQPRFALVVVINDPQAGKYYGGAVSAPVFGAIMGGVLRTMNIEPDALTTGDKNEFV

Compound | MIC (K. pneumoniae UMM) | pEC50 [1] | MIC (E. coli D22) | MIC (N. gonorrhoeae WHO Z) | MIC [2] | MIC (N. gonorrhoeae WHO M) | MIC (N. gonorrhoeae FA1090) | MIC (E. coli AG100A) | MIC (N. gonorrhoeae MS11) | MIC (E. coli AG100) | MIC (K. pneumoniae 848844) | pIC50 [3] | MIC (P. aeruginosa ATCC 27853)
CS(=O)(=O)N1CCN(C(=O)N[C@@H](C(=O)N[C@H]2Cc3cccc(C(=O)O)c3OB2O)c2cc(F)c(P(=O)(O)O)c(F)c2)C1=O (single isomer, unassigned) [Example 18] | 32 to 64 µg/mL (≈ 49.5 to 99 µM) | > 5.00 | 8 to 16 µg/mL (≈ 12.4 to 24.8 µM) | < 1 µg/mL | < 1 µg/mL | < 1 µg/mL | < 1 µg/mL | 8 to 16 µg/mL (≈ 12.4 to 24.8 µM) | < 1 µg/mL | 32 to 64 µg/mL (≈ 49.5 to 99 µM) | > 128 µg/mL | > 5.00 | > 128 µg/mL
CCN1CCN(C(=O)N[C@@H](C(=O)N[C@H]2Cc3cccc(C(=O)O)c3OB2O)c2ccc(P(C)(=O)O)cc2)C(=O)C1=O (single isomer, unassigned) [Example 47] | > 128 µg/mL | > 5.00 | 2 to 4 µg/mL (≈ 3.41 to 6.82 µM) | 1 to 2 µg/mL (≈ 1.71 to 3.41 µM) | < 1 µg/mL | < 1 µg/mL | < 1 µg/mL | 8 to 16 µg/mL (≈ 13.6 to 27.3 µM) | < 1 µg/mL | 8 to 16 µg/mL (≈ 13.6 to 27.3 µM) | > 128 µg/mL | > 5.00 | > 128 µg/mL
CS(=O)(=O)N1CCN(C(=O)N[C@@H](C(=O)N[C@H]2Cc3ccc(F)c(C(=O)O)c3OB2O)c2ccc(P(=O)(O)O)c(F)c2)C1=O (single isomer, unassigned) [Example 19] | > 128 µg/mL | > 5.00 | 8 to 16 µg/mL (≈ 12.4 to 24.8 µM) | < 1 µg/mL | < 1 µg/mL | < 1 µg/mL | < 1 µg/mL | 32 to 64 µg/mL (≈ 49.5 to 99 µM) | < 1 µg/mL | > 128 µg/mL | > 128 µg/mL | > 5.00 | > 128 µg/mL
O=C(O)c1cccc2c1OB(O)[C@@H](NC(=O)[C@H](NC(=O)[C@@H]1CCCN1)c1ccc(P(=O)(O)O)cc1)C2 [Example 173, (R)-2-hydroxy-3-((R)-2-(4-phosphonophenyl)-2-((S)-pyrrolidine-2-carboxamido)acetamido)-3,4-dihydro-2H-benzo[e][1,2]oxaborinine-8-carboxylic acid] | 32 to 64 µg/mL (≈ 61.9 to 124 µM) | 3.60 to 4.30 | 32 to 64 µg/mL (≈ 61.9 to 124 µM) | 16 to 32 µg/mL (≈ 30.9 to 61.9 µM) | 16 to 32 µg/mL (≈ 30.9 to 61.9 µM) | 4 to 8 µg/mL (≈ 7.73 to 15.5 µM) | 4 to 8 µg/mL (≈ 7.73 to 15.5 µM) | 32 to 64 µg/mL (≈ 61.9 to 124 µM) | 16 to 32 µg/mL (≈ 30.9 to 61.9 µM) | > 128 µg/mL | > 128 µg/mL | 4.30 to 5.00 | > 128 µg/mL
O=C(N[C@@H](C(=O)N[C@H]1Cc2cccc(C(=O)O)c2OB1O)c1ccc(P(=O)(O)O)cc1)c1ccc(C(F)(F)F)cn1 (single isomer, unassigned) [Example 193] | > 128 µg/mL | > 5.00 | 2 to 4 µg/mL (≈ 3.37 to 6.74 µM) | < 1 µg/mL | < 1 µg/mL | < 1 µg/mL | < 1 µg/mL | 8 to 16 µg/mL (≈ 13.5 to 27 µM) | < 1 µg/mL | 32 to 64 µg/mL (≈ 53.9 to 108 µM) | > 128 µg/mL | > 5.00 | > 128 µg/mL
O=C(O)c1cccc2c1OB(O)[C@@H](NC(=O)C(NC(=O)c1ncccc1Cl)c1ccc(P(=O)(O)O)cc1)C2 (stereo partly drawn) [Example 183, (3R)-3-(2-(3-chloropicolinamido)-2-(4-phosphonophenyl)acetamido)-2-hydroxy-3,4-dihydro-2H-benzo[e][1,2]oxaborinine-8-carboxylic acid] | > 128 µg/mL | 3.60 to 4.30 | 32 to 64 µg/mL (≈ 57.2 to 114 µM) | 16 to 32 µg/mL (≈ 28.6 to 57.2 µM) | 4 to 8 µg/mL (≈ 7.15 to 14.3 µM) | 1 to 2 µg/mL (≈ 1.79 to 3.57 µM) | 1 to 2 µg/mL (≈ 1.79 to 3.57 µM) | > 128 µg/mL | 4 to 8 µg/mL (≈ 7.15 to 14.3 µM) | > 128 µg/mL | > 128 µg/mL | > 5.00 | > 128 µg/mL
CS(=O)(=O)NC(C(=O)N[C@H]1Cc2cccc(C(=O)O)c2OB1O)c1ccc(P(=O)(O)O)cc1 (stereo partly drawn) [Example 59, (3R)-2-hydroxy-3-(2-(methylsulfonamido)-2-(4-phosphonophenyl)acetamido)-3,4-dihydro-2H-benzo[e][1,2]oxaborinine-8-carboxylic acid] | > 128 µg/mL | < 3.60 | > 128 µg/mL | 16 to 32 µg/mL (≈ 32.1 to 64.2 µM) | 16 to 32 µg/mL (≈ 32.1 to 64.2 µM) | 4 to 8 µg/mL (≈ 8.03 to 16.1 µM) | 16 to 32 µg/mL (≈ 32.1 to 64.2 µM) | > 128 µg/mL | 16 to 32 µg/mL (≈ 32.1 to 64.2 µM) | > 128 µg/mL | > 128 µg/mL | < 3.60 | > 128 µg/mL
